# Assay results: US6936585B2, “Corticotropin releasing factor 2 receptor agonists” (priority 2002, dated 2005)
# Peptide text beside a SMILES is read from it.
# Columns and labels:
# [1] = target: T1, CRF2R (Homo sapiens, UniProt Q13324); assay: CRF2R agonist activation (EC50 / Emax), called comparative CRF binding; type: cell-based; conditions: for EC50: read-out: CRF2R EC50; for Emax: read-out: CRF2R Emax
# T1 sequence (Q13324 1-411): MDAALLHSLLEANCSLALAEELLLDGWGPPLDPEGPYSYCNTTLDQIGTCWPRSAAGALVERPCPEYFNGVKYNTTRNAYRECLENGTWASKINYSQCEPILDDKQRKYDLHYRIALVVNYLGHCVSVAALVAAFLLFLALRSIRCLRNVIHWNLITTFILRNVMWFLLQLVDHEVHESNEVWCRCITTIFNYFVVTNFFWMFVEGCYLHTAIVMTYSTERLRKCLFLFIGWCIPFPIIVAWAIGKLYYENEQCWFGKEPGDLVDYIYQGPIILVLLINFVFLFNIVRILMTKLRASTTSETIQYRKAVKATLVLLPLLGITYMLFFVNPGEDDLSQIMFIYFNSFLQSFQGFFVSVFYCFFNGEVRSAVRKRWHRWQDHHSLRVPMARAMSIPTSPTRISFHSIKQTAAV
# In short: (§1)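 Agonism is scored from cAMP rise, assayed in lysates or through CRE-driven reporter expression, after peptide contact with cells bearing human CRF2R or CRF1R, compared against vehicle-treated cells.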
# [2] = target: T2, CRF1R (Homo sapiens, UniProt P34998); assay: CRF1R agonist activation (EC50 / Emax), called comparative CRF binding; type: cell-based; conditions: for EC50: read-out: CRF1R EC50; for Emax: read-out: CRF1R Emax
# T2 sequence (P34998 24-415): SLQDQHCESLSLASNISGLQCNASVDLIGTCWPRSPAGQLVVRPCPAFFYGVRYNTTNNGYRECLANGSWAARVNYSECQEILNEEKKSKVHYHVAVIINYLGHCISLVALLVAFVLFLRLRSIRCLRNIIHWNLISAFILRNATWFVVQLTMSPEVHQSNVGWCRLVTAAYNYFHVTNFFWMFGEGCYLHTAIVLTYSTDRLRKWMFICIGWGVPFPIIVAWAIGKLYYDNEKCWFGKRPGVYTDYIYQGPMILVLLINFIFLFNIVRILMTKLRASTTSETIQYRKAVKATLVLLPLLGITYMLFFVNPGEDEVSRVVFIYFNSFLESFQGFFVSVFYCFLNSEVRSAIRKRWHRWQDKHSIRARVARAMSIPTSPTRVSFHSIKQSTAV
# In short: as §1
Compound,EC50 [1] [nM],Emax [1] [%],EC50 [2] [nM],Emax [2] [%]
CC[C@H](C)[C@H](N)C(=O)N[C@H](C(=O)N[C@@H](CC(C)C)C(=O)N[C@@H](CO)C(=O)N[C@@H](CC(C)C)C(=O)N[C@@H](CC(=O)O)C(=O)N[C@H](C(=O)N1CCC[C@H]1C(=O)N[C@H](C(=O)NCC(=O)N[C@@H](CC(C)C)C(=O)N[C@@H](CC(C)C)C(=O)N[C@@H](CCC(N)=O)C(=O)N[C@H](C(=O)N[C@@H](CC(C)C)C(=O)N[C@@H](CC(C)C)C(=O)N[C@@H](CCC(=O)O)C(=O)N[C@@H](CCC(N)=O)C(=O)N[C@@H](C)C(=O)N[C@@H](CCCCN)C(=O)N[C@@H](CCC(N)=O)C(=O)N[C@@H](CCCNC(=N)N)C(=O)N[C@@H](C)C(=O)N[C@@H](C)C(=O)N[C@@H](CCCNC(=N)N)C(=O)N[C@@H](CCC(=O)O)C(=O)N[C@@H](CCC(N)=O)C(=O)N[C@@H](C)C(=O)N[C@H](C(=O)N[C@H](C(=O)N[C@@H](CC(N)=O)C(=O)N[C@@H](C)C(=O)N[C@@H](CCCNC(=N)N)C(=O)N[C@H](C(=O)N[C@@H](CC(C)C)C(=O)N[C@@H](C)C(=O)N[C@@H](CCCNC(=N)N)C(=O)N[C@H](C(N)=O)C(C)C)[C@@H](C)CC)[C@@H](C)O)[C@@H](C)O)[C@@H](C)CC)[C@@H](C)CC)C(C)C)C(C)C [compound 110] (H-IVLSLDVPIGLLQILLEQAKQRAAREQATTNARILARV-NH2; N-terminus assumed),11,100,> 100,9
CC[C@H](C)[C@H](NC(=O)[C@H](C)NC(=O)[C@H](CC(N)=O)NC(=O)[C@H](CCC(N)=O)NC(=O)[C@H](CCC(=O)O)NC(=O)[C@H](C)NC(=O)[C@H](CCCNC(=N)N)NC(=O)[C@H](CCC(=O)O)NC(=O)[C@H](CCCNC(=N)N)NC(=O)[C@H](CCC(N)=O)NC(=O)[C@H](CO)NC(=O)[C@H](CCC(N)=O)NC(=O)[C@@H](NC(=O)[C@H](CCCNC(=N)N)NC(=O)[C@H](C)NC(=O)[C@H](CC(C)C)NC(=O)[C@H](CCC(=O)O)NC(=O)[C@H](CC(C)C)NC(=O)[C@H](CC(C)C)NC(=O)[C@@H](NC(=O)[C@H](CCCNC(=N)N)NC(=O)[C@H](CC(C)C)NC(=O)[C@H](CC(C)C)NC(=O)[C@@H](NC(=O)[C@H](CC(C)C)NC(=O)[C@@H]1CCCN1C(=O)[C@H](CC(C)C)NC(=O)[C@H](CC(=O)O)NC(=O)[C@@H](NC(=O)[C@H](CO)NC(=O)[C@H](CC(C)C)NC(=O)[C@H](CO)NC(=O)[C@@H]1CCCN1C(=O)[C@H](CC(N)=O)NC(=O)[C@@H](N)CC(=O)O)[C@@H](C)CC)[C@@H](C)CC)[C@@H](C)O)[C@@H](C)O)C(=O)N[C@H](C(=O)N[C@@H](Cc1ccccc1)C(=O)N[C@@H](C)C(=O)N[C@@H](CO)C(=O)N[C@H](C(N)=O)C(C)C)[C@@H](C)CC [compound 175] (H-DNPSLSIDLPLILLRTLLELARTQSQRERAEQNAIIFASV-NH2; N-terminus assumed),5.42,92.2,≥ 1000,34.8
CC[C@H](C)[C@H](NC(=O)[C@H](CCCNC(=N)N)NC(=O)[C@H](C)NC(=O)[C@H](CC(N)=O)NC(=O)[C@H](CCC(N)=O)NC(=O)[C@H](CCC(=O)O)NC(=O)[C@H](C)NC(=O)[C@H](CCCNC(=N)N)NC(=O)[C@H](CCC(=O)O)NC(=O)[C@H](CCCNC(=N)N)NC(=O)[C@H](CCC(N)=O)NC(=O)[C@H](CO)NC(=O)[C@H](CCC(N)=O)NC(=O)[C@@H](NC(=O)[C@H](CCCCN)NC(=O)[C@H](CCC(=O)O)NC(=O)[C@H](CC(C)C)NC(=O)[C@H](CCC(=O)O)NC(=O)[C@H](CC(C)C)NC(=O)[C@H](CC(C)C)NC(=O)[C@@H](NC(=O)[C@H](CCCNC(=N)N)NC(=O)[C@H](CC(C)C)NC(=O)[C@H](CC(C)C)NC(=O)[C@H](CC(C)C)NC(=O)[C@H](CC(C)C)NC(=O)[C@@H]1CCCN1C(=O)[C@H](CC(C)C)NC(=O)[C@H](CC(=O)O)NC(=O)[C@@H](NC(=O)[C@H](CO)NC(=O)[C@H](CC(C)C)NC(=O)[C@H](CO)NC(=O)[C@@H]1CCCN1C(=O)[C@H](CC(N)=O)NC(=O)[C@@H](N)CC(=O)O)[C@@H](C)CC)[C@@H](C)O)[C@@H](C)O)C(=O)N[C@@H](Cc1ccccc1)C(=O)N[C@@H](CC(=O)O)C(=O)N[C@@H](CCCNC(=N)N)C(=O)N[C@H](C(N)=O)C(C)C [compound 338] (H-DNPSLSIDLPLLLLRTLLELEKTQSQRERAEQNARIFDRV-NH2; N-terminus assumed),,77.5,,41.1
CC[C@H](C)[C@H](N)C(=O)N[C@H](C(=O)N[C@@H](CC(C)C)C(=O)N[C@@H](CO)C(=O)N[C@@H](CC(C)C)C(=O)N[C@@H](CC(=O)O)C(=O)N[C@H](C(=O)N1CCC[C@H]1C(=O)N[C@H](C(=O)NCC(=O)N[C@@H](CC(C)C)C(=O)N[C@@H](CC(C)C)C(=O)N[C@@H](CCC(N)=O)C(=O)N[C@H](C(=O)N[C@@H](CC(C)C)C(=O)N[C@@H](CC(C)C)C(=O)N[C@@H](CCC(=O)O)C(=O)N[C@@H](CCC(N)=O)C(=O)N[C@@H](CCCNC(=N)N)C(=O)N[C@@H](CCCNC(=N)N)C(=O)N[C@@H](C)C(=O)N[C@@H](C)C(=O)N[C@@H](CCCNC(=N)N)C(=O)N[C@@H](CCC(=O)O)C(=O)N[C@@H](CCC(N)=O)C(=O)N[C@@H](C)C(=O)N[C@H](C(=O)N[C@H](C(=O)N[C@@H](CC(N)=O)C(=O)N[C@@H](C)C(=O)N[C@@H](CCCNC(=N)N)C(=O)N[C@H](C(=O)N[C@@H](CC(C)C)C(=O)N[C@@H](C)C(=O)N[C@@H](CCCNC(=N)N)C(=O)N[C@H](C(N)=O)C(C)C)[C@@H](C)CC)[C@@H](C)O)[C@@H](C)O)[C@@H](C)CC)[C@@H](C)CC)C(C)C)C(C)C [compound 133] (H-IVLSLDVPIGLLQILLEQRRAAREQATTNARILARV-NH2; N-terminus assumed),12.2,88,> 100,4
CC[C@H](C)[C@H](N)C(=O)N[C@H](C(=O)N[C@@H](CC(C)C)C(=O)N[C@@H](CO)C(=O)N[C@@H](CC(C)C)C(=O)N[C@@H](CC(=O)O)C(=O)N[C@H](C(=O)N1CCC[C@H]1C(=O)N[C@H](C(=O)NCC(=O)N[C@@H](CC(C)C)C(=O)N[C@@H](CC(C)C)C(=O)N[C@@H](CCC(N)=O)C(=O)N[C@H](C(=O)N[C@@H](CC(C)C)C(=O)N[C@@H](CC(C)C)C(=O)N[C@@H](CCC(=O)O)C(=O)N[C@@H](CCC(N)=O)C(=O)N[C@@H](C)C(=O)N[C@@H](C)C(=O)N[C@@H](C)C(=O)N[C@@H](C)C(=O)N[C@@H](CCCNC(=N)N)C(=O)N[C@@H](CCC(=O)O)C(=O)N[C@@H](CCC(N)=O)C(=O)N[C@@H](C)C(=O)N[C@H](C(=O)N[C@H](C(=O)N[C@@H](CC(N)=O)C(=O)N[C@@H](C)C(=O)N[C@@H](CCCNC(=N)N)C(=O)N[C@H](C(=O)N[C@@H](CC(C)C)C(=O)N[C@@H](C)C(=O)N[C@@H](CCCNC(=N)N)C(=O)N[C@H](C(N)=O)C(C)C)[C@@H](C)CC)[C@@H](C)O)[C@@H](C)O)[C@@H](C)CC)[C@@H](C)CC)C(C)C)C(C)C [compound 134] (H-IVLSLDVPIGLLQILLEQAAAAREQATTNARILARV-NH2),,19,,7
